Source: US7138361B2, “Herbicidal heterocycles” (E. I. du Pont de Nemours and Company, priority 2000, dated 2006)

Columns and labels:
Format in all cases: in vivo
[1] = test system: wheat (Triticum aestivum); assay: Test B postemergence; conditions: 13 to 15 days
Procedure, shortened: (§1)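 Preemergence: seeds planted and treated with test chemicals in non-phytotoxic solvent with surfactant; postemergence on plants 2–18 cm (1- to 4-leaf stage). Kept in greenhouse 13–15 days, then visually rated against controls on a 0 (no effect) to 100 (complete control) scale.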

[2] = test system: Surinam grass (Brachiaria decumbens); assay: Test B postemergence; conditions: 13 to 15 days
Procedure, shortened: as §1

[3] = test system: velvetleaf (Abutilon theophrasti); assay: Test B postemergence; conditions: 13 to 15 days
Procedure, shortened: as §1

[4] = test system: giant foxtail (Setaria faberii); assay: Test B postemergence; conditions: 13 to 15 days
Procedure, shortened: as §1

[5] = test system: barnyardgrass (Echinochloa crus-galli); assay: Test B postemergence; conditions: 13 to 15 days
Procedure, shortened: as §1

corn (Zea mays) [6] = assay: Test B postemergence; conditions: 13 to 15 days
Procedure, shortened: as §1

[7] = test system: blackgrass (Alopecurus myosuroides); assay: Test B postemergence; conditions: 13 to 15 days
Procedure, shortened: as §1

[8] = test system: morning glory (Ipomoea hederacea); assay: Test B postemergence; conditions: 13 to 15 days
Procedure, shortened: as §1

[9] = test system: pigweed (Amaranthus retroflexus); assay: Test B postemergence; conditions: 13 to 15 days
Procedure, shortened: as §1

rice (Oryza saliva) [10] = assay: Test C flooded paddy test; conditions: for Rice plant response rating: Flooded Paddy, scale 0 to 100, 0 no effect, 100 complete control; for Plant response rating, Rice: flooded paddy test, scale 0 to 100 (0 no effect, 100 complete control)
Procedure, shortened: (§2)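 Flooded paddy, 2-leaf stage at treatment. Readout: visual % control vs untreated, 0–100, at 12–14 d in greenhouse.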

[11] = test system: duck salad (Heteranthera limosa); assay: Test C flooded paddy test; conditions: for Ducksalad plant response rating: Flooded Paddy, scale 0 to 100, 0 no effect, 100 complete control; for Plant response rating, Ducksalad: flooded paddy test, scale 0 to 100 (0 no effect, 100 complete control)
Procedure, shortened: as §2

[12] = test system: barnyardgrass (Echinochloa crus-galli); assay: Test C flooded paddy test; conditions: for Barnyardgrass plant response rating: Flooded Paddy, scale 0 to 100, 0 no effect, 100 complete control; for Plant response rating, Barnyardgrass: flooded paddy test, scale 0 to 100 (0 no effect, 100 complete control)
Procedure, shortened: as §2

[13] = test system: smallflower flatsedge (Cyperus difformis); assay: Test C flooded paddy test; conditions: for Flatsedge plant response rating: Flooded Paddy, scale 0 to 100, 0 no effect, 100 complete control; for Plant response rating, Flatsedge: flooded paddy test, scale 0 to 100 (0 no effect, 100 complete control)
Procedure, shortened: as §2

Nightshade = assay: Test C preemergence; conditions: Rate 250 g/ha, visual evaluation after 12 to 14 days
[14] = test system: cocklebur (Xanthium strumarium); assay: Test B preemergence
Procedure, shortened: as §1

rice (Oryza saliva) [15] = assay: Test B preemergence
Procedure, shortened: as §1

[16] = test system: Surinam grass (Brachiaria decumbens); assay: Test B preemergence
Procedure, shortened: as §1

[17] = test system: velvetleaf (Abutilon theophrasti); assay: Test B preemergence
Procedure, shortened: as §1

[18] = test system: giant foxtail (Setaria faberii); assay: Test B preemergence
Procedure, shortened: as §1

[19] = test system: crabgrass (Digitaria sanguinalis); assay: Test B preemergence
Procedure, shortened: as §1

[20] = test system: barnyardgrass (Echinochloa crus-galli); assay: Test B preemergence
Procedure, shortened: as §1

[21] = test system: lambsquarters (Chenopodium album); assay: Test B preemergence
Procedure, shortened: as §1

corn (Zea mays) [22] = assay: Test B preemergence
Procedure, shortened: as §1

[23] = test system: morning glory (Ipomoea hederacea); assay: Test B preemergence
Procedure, shortened: as §1

[24] = test system: pigweed (Amaranthus retroflexus); assay: Test B preemergence
Procedure, shortened: as §1

Sunflower = assay: Test C preemergence; conditions: Rate 125 g/ha, scale 0 to 100, 0 no effect, 100 complete control
[25] = Rate 125 g/ha, scale 0 (no effect) to 100 (complete control)
[26] = Rate 500 g/ha, scale 0 to 100, 0 is no effect, 100 is complete control
[27] = Preemergence, Rate 500 g/ha, scale 0 to 100, 0 no effect, 100 complete control
[28] = preemergence, Rate 125 g/ha, scale of 0 to 100 where 0 is no effect and 100 is complete control, 13 to 15 days
[29] = preemergence, Rate 125 g/ha, scale 0 to 100, 0 no effect, 100 complete control

O=C1C(n2ccc(C3CCCCC3)n2)OCN1c1cccc(C(F)(F)F)c1 (stereo not drawn) [Compound 51]
Plant response rating, Wheat [1, 25]: 0 | Plant response rating, Wheat [1, 26]: 0 | Plant response rating, Surinam grass [2, 25]: 0 | Plant response rating, Surinam grass [2, 26]: 0 | Plant response rating, Velvetleaf [3, 25]: 0 | Plant response rating, Velvetleaf [3, 26]: 0 | Plant response rating, Foxtail, Giant [4, 25]: 0 | Plant response rating, Foxtail, Giant [4, 26]: 0 | Plant response rating, Barnyardgrass [5, 25]: 0 | Plant response rating, Barnyardgrass [5, 26]: 0 | Plant response rating, Corn (corn (Zea mays) [6]; [25]): 0 | Plant response rating, Corn (corn (Zea mays) [6]; [26]): 0 | Plant response rating, Blackgrass [7, 25]: 0 | Plant response rating, Blackgrass [7, 26]: 0 | Plant response rating, Morningglory [8, 25]: 0 | Plant response rating, Morningglory [8, 26]: 0 | Plant response rating, Pigweed [9, 25]: 0 | Plant response rating, Pigweed [9, 26]: 80 | Rice plant response rating (rice (Oryza saliva) [10]; Rate 250 g/ha): 0 | Rice plant response rating (rice (Oryza saliva) [10]; Rate 500 g/ha): 0 | Plant response rating, Rice (rice (Oryza saliva) [10]; Rate 62 g/ha): 0 | Plant response rating, Rice (rice (Oryza saliva) [10]; Rate 125 g/ha): 0 | Ducksalad plant response rating ([11]; Rate 250 g/ha): 40 | Ducksalad plant response rating ([11]; Rate 500 g/ha): 70 | Plant response rating, Ducksalad ([11]; Rate 62 g/ha): 0 | Plant response rating, Ducksalad ([11]; Rate 125 g/ha): 0 | Barnyardgrass plant response rating ([12]; Rate 250 g/ha): 90 | Plant response rating, Barnyardgrass ([12]; Rate 62 g/ha): 20 | Plant response rating, Barnyardgrass ([12]; Rate 125 g/ha): 20 | Flatsedge plant response rating ([13]; Rate 250 g/ha): 100 | Flatsedge plant response rating ([13]; Rate 500 g/ha): 100 | Plant response rating, Flatsedge ([13]; Rate 62 g/ha): 40 | Plant response rating, Flatsedge ([13]; Rate 125 g/ha): 90 | Plant response rating (0 to 100), Nightshade (Nightshade): 0 | Plant response rating, Cocklebur [14, 27]: 0 | Plant response rating, Cocklebur [14, 28]: 0 | Plant response rating, Rice (rice (Oryza saliva) [15]; [27]): 0 | Plant response rating, Rice (rice (Oryza saliva) [15]; [28]): 0 | Plant response rating, Surinam grass [16, 27]: 20 | Plant response rating, Surinam grass [16, 28]: 0 | Plant response rating, Velvetleaf [17, 27]: 0 | Plant response rating, Velvetleaf [17, 28]: 0 | Plant response rating, Foxtail, Giant [18, 27]: 50 | Plant response rating, Foxtail, Giant [18, 28]: 0 | Plant response rating, Crabgrass [19, 27]: 100 | Plant response rating, Crabgrass [19, 28]: 100 | Plant response rating, Barnyardgrass [20, 27]: 80 | Plant response rating, Barnyardgrass [20, 28]: 80 | Plant response rating, Lambsquarters [21, 27]: 100 | Plant response rating, Lambsquarters [21, 28]: 100 | Plant response rating, Corn (corn (Zea mays) [22]; [27]): 0 | Plant response rating, Corn (corn (Zea mays) [22]; [28]): 0 | Plant response rating, Morningglory [23, 27]: 0 | Plant response rating, Morningglory [23, 28]: 0 | Plant response rating, Pigweed [24, 27]: 100 | Plant response rating, Pigweed [24, 28]: 0 | Plant response rating, Sunflower (Sunflower): 0

O=C1C(n2ccc(C3CC3)n2)OCN1c1cccc(C(F)(F)F)c1 (stereo not drawn) [Compound 28]
Plant response rating, Wheat [1, 25]: 0 | Plant response rating, Wheat [1, 26]: 0 | Plant response rating, Surinam grass [2, 25]: 0 | Plant response rating, Surinam grass [2, 26]: 0 | Plant response rating, Velvetleaf [3, 25]: 0 | Plant response rating, Velvetleaf [3, 26]: 0 | Plant response rating, Foxtail, Giant [4, 25]: 0 | Plant response rating, Foxtail, Giant [4, 26]: 30 | Plant response rating, Barnyardgrass [5, 25]: 0 | Plant response rating, Barnyardgrass [5, 26]: 60 | Plant response rating, Corn (corn (Zea mays) [6]; [25]): 0 | Plant response rating, Corn (corn (Zea mays) [6]; [26]): 0 | Plant response rating, Blackgrass [7, 25]: 0 | Plant response rating, Blackgrass [7, 26]: 0 | Plant response rating, Morningglory [8, 25]: 0 | Plant response rating, Morningglory [8, 26]: 0 | Plant response rating, Pigweed [9, 25]: 30 | Plant response rating, Pigweed [9, 26]: 30 | Rice plant response rating (rice (Oryza saliva) [10]; Rate 250 g/ha): 20 | Rice plant response rating (rice (Oryza saliva) [10]; Rate 500 g/ha): 20 | Plant response rating, Rice (rice (Oryza saliva) [10]; Rate 62 g/ha): 0 | Plant response rating, Rice (rice (Oryza saliva) [10]; Rate 125 g/ha): 20 | Ducksalad plant response rating ([11]; Rate 250 g/ha): 70 | Ducksalad plant response rating ([11]; Rate 500 g/ha): 100 | Plant response rating, Ducksalad ([11]; Rate 62 g/ha): 0 | Plant response rating, Ducksalad ([11]; Rate 125 g/ha): 0 | Barnyardgrass plant response rating ([12]; Rate 250 g/ha): 40 | Barnyardgrass plant response rating ([12]; Rate 500 g/ha): 70 | Plant response rating, Barnyardgrass ([12]; Rate 62 g/ha): 0 | Plant response rating, Barnyardgrass ([12]; Rate 125 g/ha): 0 | Flatsedge plant response rating ([13]; Rate 250 g/ha): 100 | Flatsedge plant response rating ([13]; Rate 500 g/ha): 100 | Plant response rating, Flatsedge ([13]; Rate 62 g/ha): 80 | Plant response rating, Flatsedge ([13]; Rate 125 g/ha): 80 | Plant response rating (0 to 100), Nightshade (Nightshade): 90 | Plant response rating, Cocklebur [14, 27]: 100 | Plant response rating, Cocklebur [14, 29]: 0 | Plant response rating, Rice (rice (Oryza saliva) [15]; [27]): 40 | Plant response rating, Surinam grass [16, 27]: 70 | Plant response rating, Surinam grass [16, 29]: 0 | Plant response rating, Velvetleaf [17, 27]: 0 | Plant response rating, Foxtail, Giant [18, 27]: 100 | Plant response rating, Foxtail, Giant [18, 29]: 20 | Plant response rating, Crabgrass [19, 27]: 100 | Plant response rating, Crabgrass [19, 29]: 20 | Plant response rating, Barnyardgrass [20, 27]: 100 | Plant response rating, Barnyardgrass [20, 29]: 50 | Plant response rating, Lambsquarters [21, 27]: 100 | Plant response rating, Lambsquarters [21, 29]: 100 | Plant response rating, Corn (corn (Zea mays) [22]; [27]): 0 | Plant response rating, Corn (corn (Zea mays) [22]; [29]): 0 | Plant response rating, Morningglory [23, 27]: 0 | Plant response rating, Pigweed [24, 27]: 100 | Plant response rating, Sunflower (Sunflower): 40
